Assay results reported in patent US12559506B2, “Indazole based compounds and associated methods of use” (Arvinas Operations, Inc., priority 2021, dated 2026).
Like-named read-outs stand apart in the source and are kept apart here. Values belong to the compound of their own block, whether it stands above or below them.

Target: T1, LRRK2 (endogenous, HiBit tagged) (Homo sapiens, UniProt Q5S007)
T1 construct: endogenous in cells; host or cells: HEK293 cells with HiBit knock-in at the endogenous LRRK2 locus, stably expressing firefly luciferase
T1 sequence (Q5S007 whole entry): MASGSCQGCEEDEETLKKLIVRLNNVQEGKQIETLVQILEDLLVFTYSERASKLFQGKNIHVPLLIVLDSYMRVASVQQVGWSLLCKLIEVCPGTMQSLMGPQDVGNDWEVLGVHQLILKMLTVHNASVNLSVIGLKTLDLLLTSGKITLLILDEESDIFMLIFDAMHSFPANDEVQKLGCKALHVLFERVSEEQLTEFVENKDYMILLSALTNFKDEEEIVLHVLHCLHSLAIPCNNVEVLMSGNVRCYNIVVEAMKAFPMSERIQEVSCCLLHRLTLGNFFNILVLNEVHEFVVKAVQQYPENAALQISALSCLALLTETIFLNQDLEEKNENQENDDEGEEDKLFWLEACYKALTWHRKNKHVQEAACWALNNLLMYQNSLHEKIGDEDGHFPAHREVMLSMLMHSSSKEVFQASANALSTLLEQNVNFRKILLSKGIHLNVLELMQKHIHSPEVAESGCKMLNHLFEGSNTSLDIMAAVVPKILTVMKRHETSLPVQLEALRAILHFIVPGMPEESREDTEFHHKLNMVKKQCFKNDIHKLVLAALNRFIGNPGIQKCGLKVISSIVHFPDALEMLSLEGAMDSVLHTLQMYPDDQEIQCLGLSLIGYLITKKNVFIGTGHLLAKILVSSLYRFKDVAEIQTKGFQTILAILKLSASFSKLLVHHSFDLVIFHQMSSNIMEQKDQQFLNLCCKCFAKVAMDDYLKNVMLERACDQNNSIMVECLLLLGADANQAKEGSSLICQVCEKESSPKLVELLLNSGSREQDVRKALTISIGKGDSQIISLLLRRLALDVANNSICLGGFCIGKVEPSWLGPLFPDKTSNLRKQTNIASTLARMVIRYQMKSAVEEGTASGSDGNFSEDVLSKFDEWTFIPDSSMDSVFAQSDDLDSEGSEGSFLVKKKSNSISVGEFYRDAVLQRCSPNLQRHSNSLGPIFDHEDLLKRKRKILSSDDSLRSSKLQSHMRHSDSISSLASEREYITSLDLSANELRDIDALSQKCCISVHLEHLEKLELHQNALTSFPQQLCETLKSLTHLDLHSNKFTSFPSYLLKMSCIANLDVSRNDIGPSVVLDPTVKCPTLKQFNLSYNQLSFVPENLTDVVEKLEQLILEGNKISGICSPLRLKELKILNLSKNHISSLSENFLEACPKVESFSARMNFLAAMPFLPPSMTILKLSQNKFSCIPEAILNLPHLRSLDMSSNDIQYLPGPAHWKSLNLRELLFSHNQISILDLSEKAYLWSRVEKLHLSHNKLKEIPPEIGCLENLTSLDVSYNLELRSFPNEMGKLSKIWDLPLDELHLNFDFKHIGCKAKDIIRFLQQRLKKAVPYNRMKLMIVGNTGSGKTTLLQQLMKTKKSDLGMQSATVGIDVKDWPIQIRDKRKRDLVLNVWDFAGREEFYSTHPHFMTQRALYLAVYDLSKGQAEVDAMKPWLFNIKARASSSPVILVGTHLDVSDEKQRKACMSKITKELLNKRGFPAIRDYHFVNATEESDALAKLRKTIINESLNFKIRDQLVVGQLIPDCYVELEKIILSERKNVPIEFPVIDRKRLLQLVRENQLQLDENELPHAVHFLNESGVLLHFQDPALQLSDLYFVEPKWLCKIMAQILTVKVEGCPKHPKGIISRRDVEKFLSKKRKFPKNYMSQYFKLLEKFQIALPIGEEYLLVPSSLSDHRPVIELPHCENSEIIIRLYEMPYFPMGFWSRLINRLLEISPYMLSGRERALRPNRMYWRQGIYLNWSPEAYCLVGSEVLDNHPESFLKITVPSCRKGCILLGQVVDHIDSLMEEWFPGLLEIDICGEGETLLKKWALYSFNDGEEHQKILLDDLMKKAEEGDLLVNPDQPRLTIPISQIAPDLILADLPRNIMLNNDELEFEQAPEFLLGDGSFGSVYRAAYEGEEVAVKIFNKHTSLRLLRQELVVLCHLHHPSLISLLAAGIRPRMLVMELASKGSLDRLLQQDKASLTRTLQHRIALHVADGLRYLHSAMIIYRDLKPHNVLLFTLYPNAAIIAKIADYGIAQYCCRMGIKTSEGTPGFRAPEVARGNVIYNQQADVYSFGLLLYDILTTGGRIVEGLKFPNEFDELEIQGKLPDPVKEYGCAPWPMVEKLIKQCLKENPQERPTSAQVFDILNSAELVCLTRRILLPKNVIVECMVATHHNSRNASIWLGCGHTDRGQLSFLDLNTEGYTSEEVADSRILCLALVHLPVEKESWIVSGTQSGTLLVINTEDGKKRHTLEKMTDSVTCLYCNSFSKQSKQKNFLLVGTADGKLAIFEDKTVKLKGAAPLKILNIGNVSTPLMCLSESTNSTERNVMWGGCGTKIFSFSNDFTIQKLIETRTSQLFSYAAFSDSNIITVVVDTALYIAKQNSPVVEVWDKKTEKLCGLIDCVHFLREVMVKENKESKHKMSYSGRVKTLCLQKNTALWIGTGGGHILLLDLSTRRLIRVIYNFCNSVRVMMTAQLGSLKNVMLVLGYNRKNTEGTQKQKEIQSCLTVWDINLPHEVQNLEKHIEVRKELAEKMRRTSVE
Assay: Endogenous LRRK2 degradation assay, endogenous gene C-terminally HiBit-tagged in HEK293 cells (Nano-Glo Dual Luciferase)
Format: cell-based
How it was run: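 LRRK2-HiBit quantified via Nano-Glo Dual Luciferase in HEK293 knock-in cells co-expressing firefly luciferase, after 24 h exposure to compound (1 μM final top, 1:3, 11 points). Values normalised to DMSO median per plate and curve-fitted; Alamar Blue viability run alongside.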

[1] = endogenous HiBit-tagged LRRK2 in HEK293 cells, 24 hours treatment, read-out: Endogenous WT DC50
[2] = endogenous HiBit-tagged LRRK2 in HEK293 cells, 24 hours treatment, read-out: Endogenous WT Dmax
[3] = endogenous HiBit-tagged LRRK2 in HEK293 cells, 24 hours treatment, read-out: **Endogenous WT Dmax (%)
[4] = endogenous HiBit-tagged LRRK2 in HEK293 cells, 24 hours treatment, read-out: *Endogenous WT DC50
[5] = endogenous HiBit-tagged LRRK2, HEK293 cells, 24 hours, read-out: **Endogenous WT Dmax (%)
[6] = endogenous HiBit-tagged LRRK2, HEK293 cells, 24 hours, read-out: *Endogenous WT DC50

Structure (SMILES): CC1(Oc2ccc3[nH]nc(-c4cc(N5CCC(COC6CCC7(CC6)CN(c6ccc8c(c6F)CN(C6CCC(=O)NC6=O)C8=O)C7)CC5)ncn4)c3c2)CC1 (stereo not shown) [Compound 372, 3-(4-fluoro-5-{7-[(1-{6-[5-(1-methylcyclopropoxy)-1H-indazol-3-yl]pyrimidin-4-yl}piperidin-4-yl)methoxy]-2-azaspiro[3.5]nonan-2-yl}-1-oxo-2,3-dihydro-1H-isoindol-2-yl)piperidine-2,6-dione]
DC50 [1]: < 10 nM
Dmax [2]: 50 to 70%

Structure (SMILES): CC1(Oc2ccc3n[nH]c(-c4cc(N5CCC(O[C@H]6C[C@H](N7CC[C@@H](c8ccc9c(c8)CN(C8CCC(=O)NC8=O)C9=O)[C@@H](F)C7)C6)CC5)ncn4)c3c2)CC1 (stereo partly shown) [Compound 342, 3-{5-[(3r,4s)-3-fluoro-1-[(1r,3r)-3-[(1-{6-[5-(1-methylcyclopropoxy)-2H-indazol-3-yl]pyrimidin-4-yl}piperidin-4-yl)oxy]cyclobutyl]piperidin-4-yl]-1-oxo-2,3-dihydro-1H-isoindol-2-yl}piperidine-2,6-dione]
Dmax [3]: 50 to 70%
DC50 [4]: < 10 nM

Structure (SMILES): CC1(Oc2ccc3n[nH]c(-c4cc(N5CCN(CCN6CCN(CC7CCN(c8ccc9c(c8)CN(C8CCC(=O)NC8=O)C9=O)CC7)CC6)CC5)ncn4)c3c2)CC1 (stereo not shown) [Compound 66, 3-{5-[4-({4-[2-(4-{6-[5-(1-methylcyclopropoxy)-2H-indazol-3-yl]pyrimidin-4-yl}piperazin-1-yl)ethyl]piperazin-1-yl}methyl)piperidin-1-yl]-1-oxo-2,3-dihydro-1H-isoindol-2-yl}piperidine-2,6-dione]
Dmax (endogenous HiBit-tagged LRRK2 in HEK293 cells, 24 hours, read-out: **Endogenous WT Dmax (%)): ≥ 70%
DC50 (endogenous HiBit-tagged LRRK2 in HEK293 cells, 24 hours, read-out: *Endogenous WT DC50): < 10 nM

Structure (SMILES): CC1(Oc2ccc3[nH]nc(-c4cc(N5CCC(CN6CC7CC(C6)N7CC6CCN(c7ccc8c(c7F)CN(C7CCC(=O)NC7=O)C8=O)CC6)CC5)ncn4)c3c2)CC1 (stereo not shown) [Compound 225, 3-{4-fluoro-5-[4-({3-[(1-{6-[5-(1-methylcyclopropoxy)-1H-indazol-3-yl]pyrimidin-4-yl}piperidin-4-yl)methyl]-3,6-diazabicyclo[3.1.1]heptan-6-yl}methyl)piperidin-1-yl]-1-oxo-2,3-dihydro-1H-isoindol-2-yl}piperidine-2,6-dione]
DC50 [1]: < 10 nM
Dmax [2]: 50 to 70%

Structure (SMILES): CC1(Oc2cc3c(-c4cc(N5CCC(CN6CCN(CC7CCN(c8ccc9c(c8F)CN(C8CCC(=O)NC8=O)C9=O)CC7)CC6)CC5)ncn4)n[nH]c3cc2F)CC1 (stereo not shown) [Compound 186, 3-[4-fluoro-5-[4-[[4-[[1-[6-[6-fluoro-5-(1-methylcyclopropoxy)-1H-indazol-3-yl]pyrimidin-4-yl]-4-piperidyl]methyl]piperazin-1-yl]methyl]-1-piperidyl]-1-oxo-isoindolin-2-yl]piperidine-2,6-dione]
Dmax [5]: ≥ 70%
DC50 [6]: < 10 nM

Structure (SMILES): CC1(Oc2ccc3n[nH]c(-c4cc(N5CCC(CN6CC(F)(CC7CCN(c8ccc9c(c8F)CN(C8CCC(=O)NC8=O)C9=O)CC7)C6)CC5)ncn4)c3c2)CC1 (stereo not shown) [Compound 337, 3-{4-fluoro-5-[4-({3-fluoro-1-[(1-{6-[5-(1-methylcyclopropoxy)-2H-indazol-3-yl]pyrimidin-4-yl}piperidin-4-yl)methyl]azetidin-3-yl}methyl)piperidin-1-yl]-1-oxo-2,3-dihydro-1H-isoindol-2-yl}piperidine-2,6-dione]
Dmax [3]: ≥ 70%
DC50 [4]: < 10 nM

Structure (SMILES): CC1(Oc2cc3c(-c4cc(N5CCC(CN6CCN(CC7CCN(c8ccc9c(c8)C(=O)N(C8CCC(=O)NC8=O)C9=O)CC7)CC6)CC5)ncn4)n[nH]c3cn2)CC1 (stereo not shown) [Compound 178, 2-(2,6-dioxo-3-piperidyl)-5-[4-[[4-[[1-[6-[5-(1-methylcyclopropoxy)-1H-pyrazolo[3,4-c]pyridin-3-yl]pyrimidin-4-yl]-4-piperidyl]methyl]piperazin-1-yl]methyl]-1-piperidyl]isoindoline-1,3-dione]
Dmax [5]: ≥ 70%
DC50 [6]: < 10 nM

Structure (SMILES): CC1(Oc2ccc3[nH]nc(-c4cc(N5CCN(CC6(F)CCN(CC7CCN(c8cccc9c8CN(C8CCC(=O)NC8=O)C9=O)CC7)CC6)CC5)ncn4)c3c2)CC1 (stereo not shown) [Compound 179, 3-[4-[4-[[4-fluoro-4-[[4-[6-[5-(1-methylcyclopropoxy)-2H-indazol-3-yl]pyrimidin-4-yl]piperazin-1-yl]methyl]-1-piperidyl]methyl]-1-piperidyl]-1-oxo-isoindolin-2-yl]piperidine-2,6-dione]
Dmax [5]: 50 to 70%
DC50 [6]: < 10 nM

Structure (SMILES): COc1c(N2CCC(CN3CCN(CC4CCN(c5cc(-c6n[nH]c7cnc(OC8(C)CC8)cc67)ncn5)CC4)C[C@H]3C)CC2)ccc2c1CN(C1CCC(=O)NC1=O)C2=O (stereo partly drawn) [Compound 283, 3-[4-methoxy-5-(4-{[(2R)-2-methyl-4-[(1-{6-[5-(1-methylcyclopropoxy)-1H-pyrazolo[3,4-c]pyridin-3-yl]pyrimidin-4-yl}piperidin-4-yl)methyl]piperazin-1-yl]methyl}piperidin-1-yl)-1-oxo-2,3-dihydro-1H-isoindol-2-yl]piperidine-2,6-dione]
Dmax [3]: ≥ 70%
DC50 [4]: < 10 nM

Structure (SMILES): COc1c(N2CCC(C(C)(C)N3CCN(CC4CCN(c5cc(-c6n[nH]c7ccc(OC8(C)CC8)cc67)ncn5)CC4)CC3)CC2)ccc2c1CN(C1CCC(=O)NC1=O)C2=O (stereo not shown) [Compound 318, 3-{4-methoxy-5-[4-(2-{4-[(1-{6-[5-(1-methylcyclopropoxy)-1H-indazol-3-yl]pyrimidin-4-yl}piperidin-4-yl)methyl]piperazin-1-yl}propan-2-yl)piperidin-1-yl]-1-oxo-2,3-dihydro-1H-isoindol-2-yl}piperidine-2,6-dione]
Dmax [3]: ≥ 70%
DC50 [4]: < 10 nM

Further lines, results first:

DC50 [1]: 10 to 50 nM
Dmax [2]: 50 to 70%
Structure (SMILES): COc1c(N2CCC(O[C@H]3CC[C@H](CN4CCN(c5cc(-c6n[nH]c7ccc(OC8(C)CC8)cc67)ncn5)CC4(C)C)CC3)CC2)ccc2c1CN(C1CCC(=O)NC1=O)C2=O (stereo partly shown) [Compound 382, 3-[4-methoxy-1-oxo-5-(4-{[(1r,4r)-4-[(2,2-dimethyl-4-{6-[5-(1-methylcyclopropoxy)-1H-indazol-3-yl]pyrimidin-4-yl}piperazin-1-yl)methyl]cyclohexyl]oxy}piperidin-1-yl)-2,3-dihydro-1H-isoindol-2-yl]piperidine-2,6-dione]

Dmax [3]: 50 to 70%
DC50 [4]: < 10 nM
Structure (SMILES): CC1(Oc2ccc3[nH]nc(-c4cc(N5CC[C@H](CN6CCN(CC7CCN(c8ccc9c(c8F)CN(C8CCC(=O)NC8=O)C9=O)CC7)CC6)C5)ncn4)c3c2)CC1 (stereo partly drawn) [Compound 295, 3-(4-fluoro-5-{4-[(4-{[(3R)-1-{6-[5-(1-methylcyclopropoxy)-1H-indazol-3-yl]pyrimidin-4-yl}pyrrolidin-3-yl]methyl}piperazin-1-yl)methyl]piperidin-1-yl}-1-oxo-2,3-dihydro-1H-isoindol-2-yl)piperidine-2,6-dione]

DC50 [1]: < 10 nM
Dmax [2]: 50 to 70%
Structure (SMILES): COc1c(N2CCN(C[C@H]3CC[C@H](OC4CCN(c5cc(-c6[nH]nc7ccc(OC8(C)CC8)cc67)ncn5)CC4)CC3)CC2)ccc2c1CN(C1CCC(=O)NC1=O)C2=O (stereo partly shown) [Compound 252, 3-[4-methoxy-1-oxo-5-(4-{[(1r,4r)-4-[(1-{6-[5-(1-methylcyclopropoxy)-2H-indazol-3-yl]pyrimidin-4-yl}piperidin-4-yl)oxy]cyclohexyl]methyl}piperazin-1-yl)-2,3-dihydro-1H-isoindol-2-yl]piperidine-2,6-dione]

Dmax [5]: ≥ 70%
DC50 [6]: < 10 nM
Structure (SMILES): CC1(Oc2ccc3[nH]nc(-c4cc(N5CCN(C[C@H]6CC[C@H](CN7CCN(c8ccc9c(c8F)CN(C8CCC(=O)NC8=O)C9=O)CC7)CC6)CC5)ncn4)c3c2)CC1 (stereo partly shown) [Compound 202, 3-[4-fluoro-5-[[4-[[4-[4-[6-[5-(1-methylcyclopropoxy)-1H-indazol-3-yl]pyrimidin-4-yl]piperazin-1-yl]methyl]cyclohexyl]methyl]piperazin-1-yl]-1-oxo-isoindolin-2-yl]piperidine-2,6-dione]

Dmax [3]: 50 to 70%
DC50 [4]: < 10 nM
Structure (SMILES): CC1(Oc2cc3c(-c4cc(N5CCN(C[C@H]6CC[C@H](OC7CCN(c8ccc9c(c8F)CN(C8CCC(=O)NC8=O)C9=O)CC7)CC6)CC5)ncn4)n[nH]c3cn2)CC1 (stereo partly shown) [Compound 258, 3-[4-fluoro-1-oxo-5-(4-{[(1r,4r)-4-[(4-{6-[5-(1-methylcyclopropoxy)-1H-pyrazolo[3,4-c]pyridin-3-yl]pyrimidin-4-yl}piperazin-1-yl)methyl]cyclohexyl]oxy}piperidin-1-yl)-2,3-dihydro-1H-isoindol-2-yl]piperidine-2,6-dione]

DC50 [1]: < 10 nM
Dmax [2]: ≥ 70%
Structure (SMILES): CC1(Oc2ccc3[nH]nc(-c4cc(N5CCC(CN6CCN(CC7CCN(c8ccc9c(c8Cl)CN(C8CCC(=O)NC8=O)C9=O)CC7)CC6)CC5)ncn4)c3c2)CC1 (stereo not shown) [Compound 239, 3-[4-chloro-5-[4-[[4-[[1-[6-[5-(1-methylcyclopropoxy)-1H-indazol-3-yl]pyrimidin-4-yl]-4-piperidyl]methyl]piperazin-1-yl]methyl]-1-piperidyl]-1-oxo-isoindolin-2-yl]piperidine-2,6-dione]

Dmax [3]: 50 to 70%
DC50 [4]: < 10 nM
Structure (SMILES): CC1(Oc2ccc3[nH]nc(-c4ccnc(N5CCC(O[C@H]6CC[C@H](CN7CCN(c8ccc9c(c8F)CN(C8CCC(=O)NC8=O)C9=O)CC7)CC6)CC5)c4)c3c2)CC1 (stereo partly shown) [Compound 354, 3-(4-fluoro-5-(4-(((1r,4r)-4-((1-(4-(5-(1-methylcyclopropoxy)-1H-indazol-3-yl)pyridin-2-yl)piperidin-4-yl)oxy)cyclohexyl)methyl)piperazin-1-yl)-1-oxoisoindolin-2-yl)piperidine-2,6-dione]
